Experimental data as given in patent US20260027128A1 (priority 2016, published 2026).
Where two headings read alike, the source gives them in different places.

What was measured:
[1] = test system: male rats; test: Clinical observations in rats after intranasal or IV remimazolam (Example 1); type: in vivo, rat; conditions: intranasal dosing
[2] = test system: male rats; test: Tolerability in rats: mortality, body weight, Irwin observations, body temperature, pupil size, gross pathology (Example 1)
[3] = study Y08AG004, micropigs, cited from earlier work
[4] = study 32236, female minipigs, intravenous infusion 120 mg/kg; cited from earlier work
[5] = Solubility of remimazolam in inhalation vehicle (Example 2); conditions: concentrations >25 mg/mL
[6] = test system: Gottingen minipigs; test: Sedative effect score in Gottingen minipigs after single intranasal administration (Example 4); type: in vivo, minipig
[7] = Plasma analysis and pharmacokinetics in Gottingen minipigs after intranasal administration (Example 4); conditions: for bioavailability: Bioavailability (0-tlast), intranasal, minipig No. 2; for Cmax: Cmax of Remimazolam
[8] = Systemic and local tolerability (clinical signs, rhinoscopy, NOAEL) in Gottingen minipigs, single intranasal administration (Example 4); conditions: female, Gottingen, minipig, in vivo, inhaled or intranasal, 25 mg/animal
[9] = test system: Gottingen minipigs; test: as above; conditions: minipigs
[10] = Plasma levels of Remimazolam and its main metabolite CNS7054 in rats (Example 1)
[11] = minipig animal no. 2, intranasal 25 mg
[12] = intranasal 25 mg Remimazolam/animal

With `COC(=O)CC[C@@H]1N=C(c2ccccn2)c2cc(Br)ccc2-n2c(C)cnc21` [Remimazolam, methyl 3-[(4S)-8-bromo-1-methyl-6-(pyridin-2-yl)-4H-imidazo[1,2-a][1,4]benzodiazepin-4-yl]propanoate] the “Time clinical observations were present following dosing” value [1] was “up to 15 min”, the Gross pathology ([2]; male rats, Part B necropsy) was “No test item-related gross findings were noted” and the “Tolerability of intranasal administration” value ([2]; rats) was “well tolerated”. The “AUC0-last (data are for 0→∞)” value ([3]; intravenous bolus 1 mg/kg) was 293.3^2 ng*h/ml, the “AUC0-last/Dose (data are for 0→∞)” value ([3]; intravenous bolus 1 mg/kg) was 293.3^2 ng*h*kg/ml/mg and the “AUC0-last (data are for 0→∞)” value ([3]; intravenous infusion 2.4 mg/kg) was 676.7^2 ng*h/ml. The “AUC0-last/Dose (data are for 0→∞)” value ([3]; intravenous infusion 2.4 mg/kg) was 282.9^2 ng*h*kg/ml/mg, the AUC0-last [4] was 18215.23 ng·h/mL and the AUC0-last/Dose [4] was 151.79 ng·kg·h/mL/mg. For the same compound, the “Solubility in a reasonable inhalation vehicle” value [5] was “could not be tested due to lack of solubility in a reasonable vehicle”, the “Sedative effects lasting up to” value [6, 11] was “up to 30 minutes” and the “Start of sedative effects after administration” value [6, 11] was 5 min. For the same compound, the “Time of maximum sedative effect” value [6, 11] was 10 minutes p.a, the Sedative effect ([6]; minipig animal nos. 1 and 3, intranasal 25 mg, scores of zero recorded) was “not affected” and the AUC(0-t) ([7]; female, Gottingen, minipig, plasma, inhaled or intranasal, 1.25 mg/kg, AUC0-last, present study (33659), minipig No. 2 (bw 20 kg), intranasal 1.25 mg/kg) was 19.9 ng·h/mL. It also gave a bioavailability ([7]; female, Gottingen, minipig, plasma, inhaled or intranasal, 1.25 mg/kg, reference Y08AG004 bolus (micropigs)) of 5.43%, a bioavailability ([7]; female, Gottingen, minipig, plasma, inhaled or intranasal, 1.25 mg/kg, reference Y08AG004 infusion (micropigs)) of 5.63% and a Tmax ([7]; female, Gottingen, minipig, plasma, inhaled or intranasal, 25 mg) of 15 min. It also gave an AUC(0-t) ([7]; female, Gottingen, minipig, plasma, inhaled or intranasal, 25 mg, AUC0->last of Remimazolam, minipig animal no. 2, intranasal 25 mg) of about 20 ng·h/mL, an AUC(0-t) ([7]; female, Gottingen, minipig, plasma, inhaled or intranasal, 25 mg, AUC0->last of Remimazolam, minipig animal no. 3, intranasal 25 mg) of 7 ng·h/mL and a Cmax ([7]; female, Gottingen, minipig, plasma, inhaled or intranasal, 25 mg, minipig animal no. 1, intranasal 25 mg, extrapolated below LLOQ) of 17.4 ng/mL. The Cmax ([7]; female, Gottingen, minipig, plasma, inhaled or intranasal, 25 mg, minipig animal no. 2, intranasal 25 mg, within GLP-validated range) was 50.4 ng/mL, the Cmax ([7]; female, Gottingen, minipig, plasma, inhaled or intranasal, 25 mg, minipig animal no. 3, intranasal 25 mg, extrapolated below LLOQ) was at most 8.6 ng/mL and the bioavailability ([7]; female, Gottingen, minipig, plasma, other: intranasal, 1.25 mg/kg, reference study 32236 (IV infusion, minipigs)) was 10.5%. For the same compound, the concentration at 0.25 h ([7]; female, Gottingen, minipig, plasma, other: intranasal, 25 mg/animal) was 50.4 ng/mL, the bioavailability ([7]; female, Gottingen, minipig, plasma, other: intranasal, 25 mg/animal, reference study 32236 (IV infusion, minipigs)) was 10% and the “Plasma level of Remimazolam (CNS7056), GLP-validated method” value ([7]; minipigs, intranasal 25 mg, all samples except animal no. 2 at 0.25 hours p.a., below LLOQ) was under 20 ng/mL. The AUC0-last/Dose ([7]; present study (33659), minipig No. 2, intranasal 1.25 mg/kg) was 15.94^1 ng*h*kg/ml/mg, the NOAEL [8] was at least 1.25 mg/kg and the “NOAEL for local tolerability (nasal mucosa)” value ([9]; dry drug product powder into one nostril) was at least 25 mg/animal. For the same compound, the Body weight [9, 12] was “No test item-related influence on the body weight was observed”, the Clinical signs [9, 12] was “No test item-related changes in behavior (except for sedation, see below) or external appearance were observed” and the “Food and drinking water consumption” value [9, 12] was “No test item-related influence was noted”. The Mortality [9, 12] was “None of the animals died”, the “Rhinoscopy: changes of the nasal mucosa (erythema, eschar or oedema formation)” value ([9]; nasal 25 mg Remimazolam/animal) was “No test item-related changes of the nasal mucosa” and the “Systemic exposure following intranasal administration” value [10] was “systemically exposed”.
For `Cc1cnc2n1-c1ccc(Br)cc1C(c1ccccn1)=N[C@H]2CCC(=O)O` [CNS7054], the “tmax of the metabolite (CNS7054)” value ([7]; minipig animal no. 2, intranasal 25 mg Remimazolam) was 15 min, the “tmax of the metabolite (CNS7054)” value ([7]; minipig animal nos. 1 and 3, intranasal 25 mg Remimazolam) was 60 min and the “Plasma level of metabolite CNS7054, GLP-validated method” value ([7]; minipigs, intranasal 25 mg Remimazolam, below LLOQ) was under 100 ng/mL.
